{
  "source": "ChEMBL document CHEMBL2057187",
  "about": "“AM-8553: a novel MDM2 inhibitor with a promising outlook for potential clinical development” (J Med Chem, 2012)",
  "key": {"[1]": {"system": "SJSA-1", "assay": "Antitumor activity against human SJSA1 cells xenografted in mouse assessed as tumor regression at 200 mg/kg, qd", "format": "functional"}, "[2]": {"assay": "Oral bioavailability in mouse", "format": "ADME, organism-based", "details": "in vivo"}, "[3]": {"assay": "Oral bioavailability in rat", "format": "ADME, organism-based", "details": "in vivo"}},
  "data": [
    {"smiles": "CC[C@@H]([C@H](C)O)N1C(=O)[C@@](C)(CC(=O)O)C[C@H](c2cccc(Cl)c2)[C@H]1c1ccc(Cl)cc1", "values": [
      {"measurement": "Activity", "setting": "[1]", "result": 27, "unit": "%"},
      {"measurement": "bioavailability", "setting": "[2]", "result": 12, "unit": "%"},
      {"measurement": "bioavailability", "setting": "[3]", "result": 100, "unit": "%"}
    ]}
  ]
}
